From ChEMBL document CHEMBL1759923, “Preparation, in vitro screening and molecular modelling of symmetrical bis-quinolinium cholinesterase inhibitors--implications for early myasthenia gravis treatment” (Bioorg Med Chem Lett, 2011) come the findings set out here.

One assay concerns the target Cholinesterase (Homo sapiens, UniProt P06276). The experiment in a line: Inhibition of human plasmatic BChE by modified Ellman's method. Also noted: species or system Plasma. On the technique in general: In Ellman's method for cholinesterases, released thiocholine reacts with DTNB.
For assay [1], the target named is T1, Acetylcholinesterase (Homo sapiens, UniProt P22303). The experiment in a line: Inhibition of human erythrocytes recombinant AChE assessed as dissociation constant for enzyme-inhibitor complex.
In assay [2] the target is T1, Acetylcholinesterase. The assay can be described thus: Inhibition of human erythrocytes recombinant AChE assessed as dissociation constant for enzyme-inhibitor-substrate complex.
In assay [3] the target is T1, Acetylcholinesterase. The experiment in a line: Inhibition of human erythrocyte recombinant AChE by modified Ellman's method.
Assay [4] concerns the target T1, Acetylcholinesterase. The experiment in a line: Inhibition of human erythrocyte recombinant AChE at 0.1 mM to […] by modified Ellman's method.

The source made the active and inactive calls. The calls are words filed in the database; no cut-off is given here.

T1 sequence (P22303 whole entry): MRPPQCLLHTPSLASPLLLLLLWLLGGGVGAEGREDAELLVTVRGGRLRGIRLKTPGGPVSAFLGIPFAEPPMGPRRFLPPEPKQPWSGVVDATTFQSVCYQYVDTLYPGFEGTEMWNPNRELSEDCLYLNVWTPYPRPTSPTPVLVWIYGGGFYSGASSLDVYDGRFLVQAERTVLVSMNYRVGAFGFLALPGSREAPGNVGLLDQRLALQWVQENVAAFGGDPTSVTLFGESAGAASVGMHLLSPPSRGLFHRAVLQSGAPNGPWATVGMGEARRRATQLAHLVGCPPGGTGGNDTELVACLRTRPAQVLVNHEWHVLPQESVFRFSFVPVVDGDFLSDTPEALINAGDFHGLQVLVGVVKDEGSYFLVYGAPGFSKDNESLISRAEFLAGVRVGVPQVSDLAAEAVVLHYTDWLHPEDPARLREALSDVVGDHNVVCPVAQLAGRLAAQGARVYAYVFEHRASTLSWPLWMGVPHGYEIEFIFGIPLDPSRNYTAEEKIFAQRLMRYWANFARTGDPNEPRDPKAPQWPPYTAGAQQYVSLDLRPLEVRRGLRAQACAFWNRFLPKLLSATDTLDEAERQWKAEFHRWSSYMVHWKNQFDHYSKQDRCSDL
Cholinesterase, sequence (P06276 whole entry): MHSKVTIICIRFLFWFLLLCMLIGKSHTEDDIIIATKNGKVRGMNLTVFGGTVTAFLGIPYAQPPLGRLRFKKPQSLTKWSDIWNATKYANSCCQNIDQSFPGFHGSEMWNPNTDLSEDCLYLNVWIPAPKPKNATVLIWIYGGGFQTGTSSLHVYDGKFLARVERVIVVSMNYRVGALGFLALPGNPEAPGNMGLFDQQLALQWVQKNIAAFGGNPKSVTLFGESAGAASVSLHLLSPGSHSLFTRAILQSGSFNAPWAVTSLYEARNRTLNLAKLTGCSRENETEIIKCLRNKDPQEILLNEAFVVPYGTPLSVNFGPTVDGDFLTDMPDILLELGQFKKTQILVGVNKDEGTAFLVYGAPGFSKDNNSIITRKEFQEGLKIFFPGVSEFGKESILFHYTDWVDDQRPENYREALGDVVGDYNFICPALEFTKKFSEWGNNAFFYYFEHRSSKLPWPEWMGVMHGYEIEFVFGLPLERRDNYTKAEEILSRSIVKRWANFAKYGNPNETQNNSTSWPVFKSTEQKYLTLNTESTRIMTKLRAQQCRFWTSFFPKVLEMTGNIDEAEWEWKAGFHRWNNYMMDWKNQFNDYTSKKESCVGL

The IC50 is the concentration that inhibits the measured activity by half. As to `C[N+](C)(CCNC(=O)C(=O)NCC[N+](C)(C)Cc1ccccc1Cl)Cc1ccccc1Cl` [AMBENONIUM DICHLORIDE], half-maximal inhibition against Cholinesterase (IC50) required 7 µM.

The term Ki denotes a dissociation constant, usually derived from enzyme kinetics or from competition with a known ligand. Regarding `c1ccc2c(c1)ccc[n+]2Cc1ccc2ccc(C[n+]3cccc4ccccc43)cc2c1`, the values for the Ki on Acetylcholinesterase [1] and at Acetylcholinesterase [2] were 2300 nM and 8.2 µM, respectively. For the same compound, the IC50 at Acetylcholinesterase [3] came out at 0.8 µM; against Cholinesterase it was 0.2 µM.

`c1ccc2c(c1)ccc[n+]2COC[n+]1cccc2ccccc21`: the IC50 on Acetylcholinesterase [3] came out at 418 µM; against Cholinesterase, 871 µM.

As for `c1ccc2c(c1)ccc[n+]2CCCCCCCCCCC[n+]1cccc2ccccc21`, the IC50 on Acetylcholinesterase [3] is 0.01 µM; against Cholinesterase, 0.5 µM.

On to `c1ccc2c(c1)ccc[n+]2CCCCCCC[n+]1cccc2ccccc21`, for which the half-maximal inhibitory concentration (IC50) on Acetylcholinesterase [3] amounted to 0.09 µM; against Cholinesterase, 0.4 µM.

As to `c1ccc2c(c1)ccc[n+]2Cc1ccc(C[n+]2cccc3ccccc32)cc1`, the inhibition entry at Acetylcholinesterase [4] is “inactive”.

Regarding `c1ccc2c(c1)ccc[n+]2CCCCCCCCCCCC[n+]1cccc2ccccc21`, the IC50 was found to be 0.02 µM at Acetylcholinesterase [3] and 0.4 µM at Cholinesterase.

In the case of `c1ccc2c(c1)ccc[n+]2CCOCC[n+]1cccc2ccccc21`, the IC50 was 35 µM at Acetylcholinesterase [3] and 48 µM against Cholinesterase.

Regarding `C(=C/C[n+]1cccc2ccccc21)/C[n+]1cccc2ccccc21`, the figures for the IC50 at Acetylcholinesterase [3] and against Cholinesterase were 2 µM and 0.8 µM, respectively.

As to `c1ccc2c(c1)ccc[n+]2CCCCCCCCC[n+]1cccc2ccccc21`, the IC50 was 0.08 µM on Acetylcholinesterase [3] and 0.6 µM against Cholinesterase.

Take `c1ccc2c(c1)ccc[n+]2CCCC[n+]1cccc2ccccc21`: the figures for the IC50 on Acetylcholinesterase [3] and against Cholinesterase were 38 µM and 32 µM, respectively.

For `c1ccc2c(c1)ccc[n+]2CCC[n+]1cccc2ccccc21`, the IC50 on Acetylcholinesterase [3] was 9 µM; against Cholinesterase, 13 µM.

In the case of `c1ccc2c(c1)ccc[n+]2CCCCCCCC[n+]1cccc2ccccc21`, the IC50 was 0.08 µM at Acetylcholinesterase [3] and 0.7 µM against Cholinesterase.

Take `c1ccc(C[n+]2cccc3ccccc32)c(C[n+]2cccc3ccccc32)c1`: the IC50 on Acetylcholinesterase [3] came to 35 µM; at Cholinesterase it was 6 µM.

In the case of `c1cc(C[n+]2cccc3ccccc32)cc(C[n+]2cccc3ccccc32)c1`, the figures for the IC50 at Acetylcholinesterase [3] and against Cholinesterase were 40 µM and 20 µM, respectively.

In the case of `c1ccc2c(c1)ccc[n+]2CCCCC[n+]1cccc2ccccc21`, the IC50 at Acetylcholinesterase [3] stood at 4 µM; on Cholinesterase, 34 µM.

With `C(=C\C[n+]1cccc2ccccc21)/C[n+]1cccc2ccccc21`, the results for the IC50 at Acetylcholinesterase [3] and on Cholinesterase were 6 µM and 308 µM, respectively.

As to `c1ccc2c(c1)ccc[n+]2CCCCCC[n+]1cccc2ccccc21`, the values for the IC50 at Acetylcholinesterase [3] and on Cholinesterase were 25 µM and 5 µM, respectively.
